Experimental data taken from patent US5902826A, “Platinum (IV) complex and pharmaceutical composition comprising the same” (SS Pharmaceutical Co., Ltd., priority 1997, dated 1999).

Assays:
[1] = test system: mouse M5076 tumor (M5076 reticulosarcoma); test: Antitumor effect on mouse M5076 tumor (M5076 reticulosarcoma), s.c.-p.o.; assay type: in vivo; conditions: for TI (therapeutic index): calculated from LD50 (single i.p.) and ID50 (p.o.); for dosage of GImax (in parentheses): dosage giving GImax, no mortal case; for dosage of GImax (in parentheses) / ID50 (dosage by which the GI value after 5 administrations shows 50%): p.o. once a day for 5 days; for GImax (maximum growth inhibition rate in the dosage range by which no mortal case can be found): male BDF1 mouse, 1×10^6 cells s.c., drug p.o. once a day for 5 days, 30 days of observation, average tumor weights vs non-treated group; for ID50 (dosage by which the GI value after 5 administrations shows 50%): calculated from linear regression line of GI at each dosage
Procedure: Test on antitumor effect on mouse M5076 tumor
A total of 1×10^6 cells of mouse M5076 tumor were transplanted subcutaneously (s.c.) of a 6-week age male BDF1 mouse, a drug (compound of the present invention) was administered orally (p.o.) once a day for 5 days starting on the next day and then, after 30 days of observation, growth inhibition rate (GI) was calculated from the average tumor weights in the drug-treated group and the non-treated group. […] Each of the drugs to be tested was prepared just before its use by dissolving or suspending the drug (compound of the present invention) in olive oil using a handy sonicator. The dosage was 0.1 ml per 10 g mouse body weight. In Table 1, GImax is the maximum value (%) of GI in the dosage range by which no mortal case can be found, and its dosage (mg/kg) is shown in parentheses.

[2] = LD50 (50% lethal dose by single intraperitoneal administration); assay type: in vivo, mouse; conditions: 50% lethal dose by single intraperitoneal administration, obtained at the time of dose setting
[3] = background statement, cited from earlier work
[4] = background statement, derivative of cisplatin; cited from earlier work

| Compound | TI (therapeutic index) [1] | dosage of GImax (in parentheses) [1] [mg/kg] | GImax (maximum growth inhibition rate in the dosage range by which no mortal case can be found) [1] [%] | ID50 (dosage by which the GI value after 5 administrations shows 50%) [1] [mg/kg] | LD50 [2] [mg/kg] | renal toxicity ([3]; derivative of cisplatin) | solubility in water [4] | nephropathy as a side effect [3] |
| --- | --- | --- | --- | --- | --- | --- | --- | --- |
| 1,1-cyclobutanedicarboxylato trans-dihydroxo (1,3-diamino-2-propanol)platinum (IV) [Compound 1] | > 25.0 | 32.0 | 95.6 | < 8.0 | > 200.0 | – | – | – |
| N.N.O=C([O-])C1(C(=O)[O-])CCC1.[Pt+2] [Carboplatin, carboplatin, reference compound] | 2.0 | 256.0 | 75.3 | 119.9 | 245.0 | reduced renal toxicity | increased solubility in water | – |
| N.N.[Cl][Pt][Cl] [Cisplatin, cisplatin, reference compound] | – | 8.0 | 74.5 | 3.2 | – | – | – | sometimes causes serious nephropathy |
| O=C(OC1C[NH2+][Pt-2]2([O]C(=O)C(F)(F)F)([O]C(=O)C(F)(F)F)([NH2+]C1)[O]C(=O)C1(CCC1)C(=O)[O]2)C(F)(F)F (stereo not drawn) [Compound 11, 1,1-cyclobutanedicarboxylato trans-bis(trifluoroacetato) (O-trifluoroacetyl-1,3-diamino-2-propanol)platinum (IV)] | 17.3 | 32.0 | 86.5 | 10.2 | 176.5 | – | – | – |
| O=C([O][Pt-2]12([O]C(=O)C(F)(F)F)([NH2+]CC(O)C[NH2+]1)[O]C(=O)C1(CCC1)C(=O)[O]2)C(F)(F)F (stereo not drawn) [Compound 18, 1,1-cyclobutanedicarboxylato trans-bis(trifluoroacetato) (1,3-diamino-2-propanol)platinum (IV)] | 18.4 | 32.0 | 95.6 | 9.6 | 176.8 | – | – | – |
| trans-bis (acetato) 1,1-cyclobutanedicarboxylato (1,3-diamino-2-propanol) platinum (IV) [Compound 5] | 9.2 | 64.0 | 61.4 | 38.4 | 353.0 | – | – | – |
